“And” between values parts separate entries of the source, which are not always exact repeats. Equal entries are not always repeated. Inconclusive results and toxic doses are left out.

The test system of the experiment is BDF1 mice, P388 leukemia ip, median survival T/C. Put plainly: NCI In Vivo Anticancer Drug Screen. Data for tumor model P388 Leukemia (intraperitoneal) in B6D2F1 (BDF1) mice. Conditions: endpoint: median survival time, higher = longer survival. In outline:
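Antitumour effect was judged in vivo: survival in drug-treated mice, normalised to that of vehicle-dosed controls, gives the reported T/C.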

[1] abbreviates: dose: 200.0 mg/kg/injection, schedule: Q01DX009 (ip), vehicle: saline.
Where [2] appears, read: dose: 200.0 mg/kg/injection, schedule: Q01DX009 (ip), vehicle: Klucel (hydroxypropylcellulose) (HPC).
[3] abbreviates: dose: 50.0 mg/kg/injection, schedule: Q01DX009 (ip), vehicle: saline with Tween-80.
Where [4] appears, read: dose: 100.0 mg/kg/injection, schedule: Q01DX009 (ip), vehicle: saline with Tween-80.
The mark [5] stands for this setting: dose: 6.25 mg/kg/injection, schedule: Q01DX009 (ip), vehicle: Klucel (hydroxypropylcellulose) (HPC).
Setting [6] is: dose: 12.5 mg/kg/injection, schedule: Q01DX009 (ip), vehicle: Klucel (hydroxypropylcellulose) (HPC).
[7] abbreviates: dose: 200.0 mg/kg/injection, schedule: Q04DX003 (ip), vehicle: saline with Tween-80.
Setting [8] is: dose: 50.0 mg/kg/injection, schedule: Q04DX003 (ip), vehicle: saline with Tween-80.

On to `CCOC(=O)C1CSC2(CCCCC2)N1` (configuration not stated), for which the T/C is 92 % of control (dose: 50.0 mg/kg/injection, schedule: Q01DX009 (ip), vehicle: saline); 94 % of control (dose: 100.0 mg/kg/injection, schedule: Q01DX009 (ip), vehicle: saline); 109 % of control under setting [1].

Consider `CCCCCCCCCCCCCCCCCCCCCCCCC(O)C(=O)NC(CO)C(O)C(O)CCCCCCCCCCCCCC` (configuration not stated), for which the T/C (dose: 400.0 mg/kg/injection, schedule: Q04DX003 (ip), vehicle: saline with Tween-80) is 87 % of control.

Turning to `[O-][n+]1ccccc1Br`, the T/C by setting is: (dose: 50.0 mg/kg/injection, schedule: Q04DX003 (ip), vehicle: water) 91 % of control; (dose: 100.0 mg/kg/injection, schedule: Q04DX003 (ip), vehicle: water) 91 % of control.

On to `O=C1/C(=C/c2ccco2)CC2CCCCC12` (configuration not stated), for which the T/C is, setting by setting: (dose: 50.0 mg/kg/injection, schedule: Q01DX009 (ip), vehicle: Klucel (hydroxypropylcellulose) (HPC)) 104 % of control; (dose: 75.0 mg/kg/injection, schedule: Q01DX001 (ip), vehicle: other) 100 % of control; (dose: 75.0 mg/kg/injection, schedule: Q01DX009 (ip), vehicle: Klucel (hydroxypropylcellulose) (HPC)) 113 % of control; (dose: 150.0 mg/kg/injection, schedule: Q01DX001 (ip), vehicle: other) 104 % of control; (dose: 150.0 mg/kg/injection, schedule: Q01DX009 (ip), vehicle: Klucel (hydroxypropylcellulose) (HPC)) 100 % of control.

For `O=C1CCCSc2ccccc21`, the T/C (dose: 100.0 mg/kg/injection, schedule: Q01DX009 (ip), vehicle: Klucel (hydroxypropylcellulose) (HPC)) was 120 % of control; the T/C (dose: 100.0 mg/kg/injection, schedule: Q04DX003 (ip), vehicle: Klucel (hydroxypropylcellulose) (HPC)) was 100 % of control; the T/C under setting [2] is 115 % of control; the T/C (dose: 200.0 mg/kg/injection, schedule: Q04DX003 (ip), vehicle: Klucel (hydroxypropylcellulose) (HPC)) is 100 % of control; the T/C (dose: 400.0 mg/kg/injection, schedule: Q01DX009 (ip), vehicle: Klucel (hydroxypropylcellulose) (HPC)) is 115 % of control; the T/C (dose: 400.0 mg/kg/injection, schedule: Q04DX003 (ip), vehicle: Klucel (hydroxypropylcellulose) (HPC)) was 100 % of control.

As for `Nc1ccc(N(CCCl)CCN(CCCl)c2ccc(N)cc2)cc1`, the T/C (dose: 0.8 mg/kg/injection, schedule: Q01DX009 (ip), vehicle: saline) is 154 % of control; the T/C (dose: 1.2 mg/kg/injection, schedule: Q01DX009 (ip), vehicle: saline) is 181 % of control; the T/C (dose: 1.8 mg/kg/injection, schedule: Q01DX009 (ip), vehicle: saline) was 204 % of control.

Regarding `COc1cc(C)c(C2NC(=O)c3ccccc3N2)cc1C` (configuration not stated), the T/C is 155 % of control and 170 % of control under setting [2]; 150 % of control (dose: 265.0 mg/kg/injection, schedule: Q01DX009 (ip), vehicle: Klucel (hydroxypropylcellulose) (HPC)).

Take `CO[C@@H]1C=C[C@@]23c4cc5c(cc4CN(C[C@@H]2O)[C@H]3C1)OCO5`: the T/C by setting is: (dose: 18.75 mg/kg/injection, schedule: Q01DX010 (ip), vehicle: saline) 104 % of control; (dose: 37.5 mg/kg/injection, schedule: Q01DX010 (ip), vehicle: saline) 104 % of control.

Consider `CS(C)=O`, for which the T/C runs as follows: under setting [1], 100 % of control; (dose: 400.0 mg/kg/injection, schedule: Q01DX009 (ip), vehicle: saline) 100 % of control; (dose: 600.0 mg/kg/injection, schedule: Q01DX009 (ip), vehicle: saline) 100 % of control; (dose: 800.0 mg/kg/injection, schedule: Q01DX009 (ip), vehicle: saline) 95 % of control.

Turning to `CS(=O)(=O)c1cnc2ccccc2n1`, the T/C reads like this: (dose: 25.0 mg/kg/injection, schedule: Q01DX009 (ip), vehicle: saline with Tween-80) 97 % of control; under setting [3], 99 % of control; under setting [4], 90 % of control.

As for `O=C(O)C(Cc1cccc(F)c1)NC(=O)C(F)(F)F` (configuration not stated), the T/C reads like this: (dose: 1.56 mg/kg/injection, schedule: Q01DX009 (ip), vehicle: saline) 105 % of control; (dose: 3.13 mg/kg/injection, schedule: Q01DX009 (ip), vehicle: saline) 96 % of control; (dose: 6.25 mg/kg/injection, schedule: Q01DX009 (ip), vehicle: saline) 104 % of control.

On to `CC(C)NC(=O)c1ccccc1S(=O)(=O)c1ccccc1C(=O)NC(C)C`, for which the T/C runs as follows: (dose: 100.0 mg/kg/injection, schedule: Q01DX001 (ip), vehicle: saline with Tween-80) 108 % of control; (dose: 200.0 mg/kg/injection, schedule: Q01DX001 (ip), vehicle: saline with Tween-80) 100 % of control; (dose: 400.0 mg/kg/injection, schedule: Q01DX001 (ip), vehicle: saline with Tween-80) 100 % of control.

`C[C@@H]1C[C@@]2(C)[C@@H](CC[C@@H]3[C@@H]2CC[C@]2(C)[C@@H](O)CC[C@@H]32)CC1=O`: the T/C was 109 % of control under setting [5]; 109 % of control under setting [6]; 109 % of control (dose: 25.0 mg/kg/injection, schedule: Q01DX009 (ip), vehicle: Klucel (hydroxypropylcellulose) (HPC)).

As to `Cc1ccc(S(=O)(=O)OCC2C3CCC2C3)cc1` (configuration not stated), the T/C under setting [3] is 101 % of control; the T/C under setting [4] is 107 % of control; the T/C (dose: 200.0 mg/kg/injection, schedule: Q01DX009 (ip), vehicle: saline with Tween-80) was 107 % of control.

Take `Nc1cc(C(F)(F)F)ccc1S(=O)(=O)O`: the T/C reads like this: (dose: 100.0 mg/kg/injection, schedule: Q01DX001 (ip), vehicle: Klucel (hydroxypropylcellulose) (HPC)) 100 % of control; (dose: 200.0 mg/kg/injection, schedule: Q01DX001 (ip), vehicle: Klucel (hydroxypropylcellulose) (HPC)) 100 % of control; (dose: 400.0 mg/kg/injection, schedule: Q01DX001 (ip), vehicle: Klucel (hydroxypropylcellulose) (HPC)) 100 % of control.

With `Cc1ccc(C(SCC(N)C(=O)O)(c2ccccc2)c2ccccc2)cc1` (configuration not stated), the T/C (dose: 132.0 mg/kg/injection, schedule: Q04DX003 (ip), vehicle: saline with Tween-80) is 260 % of control; the T/C under setting [7] is 260 % of control; the T/C (dose: 300.0 mg/kg/injection, schedule: Q04DX003 (ip), vehicle: saline with Tween-80) was 95 % of control.

For the molecule `CCOC(=O)CC(C)=O.[Cu+2]`, the T/C under setting [5] was 100 % of control and the T/C under setting [6] is 90 % of control.

Turning to `CCCNC(C)(C)C(SS)c1ccc(Cl)cc1` (configuration not stated), the T/C is, setting by setting: under setting [8], 109 % of control; (dose: 100.0 mg/kg/injection, schedule: Q04DX003 (ip), vehicle: saline with Tween-80) 104 % of control; under setting [7], 109 % of control.

Regarding `COC(=O)C1(Cc2ccccc2)CCCC1(C#N)O[Si](C)(C)C` (configuration not stated), the T/C is 92 % of control (dose: 12.5 mg/kg/injection, schedule: Q04DX003 (ip), vehicle: saline with Tween-80); 106 % of control (dose: 25.0 mg/kg/injection, schedule: Q04DX003 (ip), vehicle: saline with Tween-80); 97 % of control under setting [8].

Values taken from PubChem BioAssay AID328 (DTP/NCI, 2004).
